Measured values: ChEMBL document CHEMBL5634158, “From garden to lab: C-3 chemical modifications of tomatidine unveil broad-spectrum ATP synthase inhibitors to combat bacterial resistance” (Eur J Med Chem, 2023)
In brackets after ≈: the same amount, converted by molar mass. Blank lines part the entries; values can stand above or below the compound they belong to.

Assays:
Staphylococcus aureus [1] = experiment: Antibacterial activity against antibiotic resistant methicillin resistant Staphylococcus aureus ATCC BAA-41/USA-100 assessed as reduction in microbial growth incubated for 20 hrs under aerobic condition by CLSI based broth microdilution method; type: functional
Staphylococcus aureus [2] = experiment: Antibacterial activity against antibiotic susceptible Staphylococcus aureus ATCC 29213 assessed as reduction in microbial growth incubated for 20 hrs under aerobic condition by CLSI based broth microdilution method; type: functional
Staphylococcus aureus [3] = experiment: Antibacterial activity against antibiotic susceptible Staphylococcus aureus ATCC 29213 hemB SCV assessed as reduction in microbial growth incubated for 20 hrs under aerobic condition by CLSI based broth microdilution method; type: functional
Staphylococcus aureus [4] = experiment: Antibacterial activity against antibiotic resitant/methicillin resistant Staphylococcus aureus ATCC 700699/Mu50 assessed as reduction in microbial growth incubated for 20 hrs under aerobic condition by CLSI based broth microdilution method; type: functional
Escherichia coli [5] = experiment: Antibacterial activity against Escherichia coli ATCC 25922 assessed as fold decrease in MIC for 20 hrs under aerobic condition by CLSI based broth microdilution method; type: functional
Staphylococcus aureus [6] = experiment: Antibacterial activity against Staphylococcus aureus ATCC 29213 assessed as fold decrease in MIC incubated for 20 hrs under aerobic condition by CLSI based broth microdilution method; type: functional
Staphylococcus aureus [7] = experiment: Antibacterial activity against Staphylococcus aureus ATCC 29213 assessed as reduction in microbial growth incubated for 20 hrs under aerobic condition by CLSI based broth microdilution method; type: functional
Escherichia coli [8] = experiment: Antibacterial activity against Escherichia coli ATCC 25922 assessed as reduction in microbial growth incubated for 20 hrs under aerobic condition by CLSI based broth microdilution method; type: functional
Staphylococcus aureus [9] = experiment: Antibacterial activity against Staphylococcus aureus ATCC 29213 SCV assessed as reduction in microbial growth by CLSI based broth microdilution method; type: functional
Staphylococcus aureus [10] = experiment: Antibacterial activity against Staphylococcus aureus ATCC 29213 hemB SCV assessed as reduction in microbial growth incubated for 20 hrs under aerobic condition by CLSI based broth microdilution method; type: functional
Staphylococcus aureus [11] = experiment: Antibacterial activity against wild type Staphylococcus aureus ATCC 29213 assessed as reduction in microbial growth by CLSI based broth microdilution method; type: functional
Escherichia coli [12] = experiment: Antibacterial activity against antibiotic susceptible Escherichia coli ATCC 25922 assessed as reduction in microbial growth incubated for 20 hrs under aerobic condition by CLSI based broth microdilution method; type: functional
Escherichia coli [13] = experiment: Antibacterial activity against NDM1-producing carbapenem resistant/antibiotic susceptible Escherichia coli ATCC BAA-2471 assessed as reduction in microbial growth incubated for 20 hrs under aerobic condition by CLSI based broth microdilution method; type: functional, organism-based
Escherichia coli [14] = experiment: Antibacterial activity against antibiotic susceptible Escherichia coli producing extended spectrum beta-lactamase KPC assessed as reduction in microbial growth incubated for 20 hrs under aerobic condition by CLSI based broth microdilution method; type: functional
Escherichia coli [15] = experiment: Antibacterial activity against antibiotic/colistin resistant Escherichia coli harboring mcr-1 gene assessed as reduction in microbial growth incubated for 20 hrs under aerobic condition by CLSI based broth microdilution method; type: functional
Escherichia coli [16] = experiment: Antibacterial activity against Escherichia coli MC4100 assessed as reduction in bacterial growth by CLSI based broth microdilution method; type: functional
Escherichia coli [17] = experiment: Selectivity ratio of MIC for Escherichia coli MC4100 to MIC for Escherichia coli MC4100 harbouring acrAB mutant; type: toxicity, organism-based; conditions: in vivo
[18] = Inhibition of Escherichia coli ATCC 25922 ATP synthase activity preincubated for 30 mins followed by NADH/ADP addition and measured after 60 mins by luciferin/luciferase luminescence assay
Escherichia coli [19] = experiment: Antibacterial activity against Escherichia coli MC4100 harbouring lptD mutant assessed as reduction in bacterial growth by CLSI based broth microdilution method; type: functional
Escherichia coli [20] = experiment: Antibacterial activity against Escherichia coli MC4100 harbouring acrAB mutant assessed as reduction in bacterial growth by CLSI based broth microdilution method; type: functional
Escherichia coli [21] = experiment: Antibacterial activity against antibiotic susceptible Escherichia coli producing extended spectrum beta-lactamase CTX-M-15 assessed as reduction in microbial growth incubated for 20 hrs under aerobic condition by CLSI based broth microdilution method; type: functional
Staphylococcus aureus [22] = experiment: Antibacterial activity against antibiotic resistant Staphylococcus aureus ATCC 29213 hemB SCV assessed as reduction in microbial growth incubated for 20 hrs under aerobic condition by CLSI based broth microdilution method; type: functional
Escherichia coli [23] = experiment: Antibacterial activity against NDM1-producing carbapenem/antibiotic resistant Escherichia coli ATCC BAA-2471 assessed as reduction in microbial growth incubated for 20 hrs under aerobic condition by CLSI based broth microdilution method; type: functional
Escherichia coli [24] = experiment: Antibacterial activity against antibiotic resistant Escherichia coli producing extended spectrum beta-lactamase CTX-M-15 assessed as reduction in microbial growth incubated for 20 hrs under aerobic condition by CLSI based broth microdilution method; type: functional
Escherichia coli [25] = experiment: microbe, parasite or virus in culture; conditions: 20 h
Description: Antibacterial activity against antibiotic resistant Escherichia coli producing extended spectrum beta-lactamase KPC assessed as reduction in microbial growth incubated for 20 hrs under aerobic condition by CLSI based broth microdilution method

Escherichia coli [26] = experiment: Antibacterial activity against antibiotic susceptible /colistin resistant Escherichia coli harboring mcr-1 gene assessed as reduction in microbial growth incubated for 20 hrs under aerobic condition by CLSI based broth microdilution method; type: functional
[27] = Inhibition of mitochondrial ATP synthase in human HepG2 cells preincubated for 30 mins followed by NADH/ADP addition and measured after 60 mins by luminescence assay; type: cell-based
Escherichia coli [28] = experiment: Antibacterial activity against colistin resistant Escherichia coli harboring mcr-1 gene assessed as reduction in microbial growth incubated for 20 hrs under aerobic condition by CLSI based broth microdilution method; type: functional
Escherichia coli [29] = experiment: Antibacterial activity against Escherichia coli producing extended spectrum beta-lactamase CTX-M-15 assessed as reduction in microbial growth incubated for 20 hrs under aerobic condition by CLSI based broth microdilution method; type: functional
Staphylococcus aureus [30] = experiment: Antibacterial activity against methicillin resistant Staphylococcus aureus ATCC 700699/Mu50 assessed as reduction in microbial growth incubated for 20 hrs under aerobic condition by CLSI based broth microdilution method; type: functional
Staphylococcus aureus [31] = experiment: Antibacterial activity against methicillin resistant Staphylococcus aureus ATCC BAA-41/USA-100 assessed as reduction in microbial growth incubated for 20 hrs under aerobic condition by CLSI based broth microdilution method; type: functional
[32] = Inhibition of Staphylococcus aureus ATCC 29213 ATP synthase activity preincubated for 30 mins followed by NADH/ADP addition and measured after 60 mins by luciferin/luciferase luminescence assay
Escherichia coli [33] = experiment: Antibacterial activity against NDM1-producing carbapenem-resistant Escherichia coli ATCC BAA-2471 assessed as reduction in microbial growth incubated for 20 hrs under aerobic condition by CLSI based broth microdilution method; type: functional
Escherichia coli [34] = experiment: Antibacterial activity against Escherichia coli producing extended spectrum beta-lactamase KPC assessed as reduction in microbial growth incubated for 20 hrs under aerobic condition by CLSI based broth microdilution method; type: functional
Staphylococcus aureus [35] = experiment: microbe, parasite or virus in culture; conditions: ATCC 700699/Mu50, 20 h
Description: Antibacterial activity against antibiotic intermediately resitant/methicillin resistant Staphylococcus aureus ATCC 700699/Mu50 assessed as reduction in microbial growth incubated for 20 hrs under aerobic condition by CLSI based broth microdilution method

Compound: Cc1onc(-c2ccccc2)c1C(=O)N[C@@H]1C(=O)N2[C@@H]1SC(C)(C)[C@@H]2C(=O)O [OXACILLIN]
- MIC (Staphylococcus aureus [1]): > 128 µg/mL
- MIC (Staphylococcus aureus [2]): 0.24 µg/mL
- MIC (Staphylococcus aureus [3]): 0.12 µg/mL
- MIC (Staphylococcus aureus [4]): > 128 µg/mL

- MIC (Staphylococcus aureus [7]): 16 µg/mL
- MIC (Escherichia coli [8]): > 128 µg/mL
Compound: C[C@H]1CC[C@]2(NC1)O[C@H]1C[C@H]3[C@@H]4CC[C@H]5CC(NC[C@@H]6Cc7ccccc7CN6)CC[C@]5(C)[C@H]4CC[C@]3(C)[C@H]1[C@@H]2C (mixture of isomers)
- fold change (FC) (Escherichia coli [5]): 2
- fold change (FC) (Staphylococcus aureus [6]): 2

Compound: C[C@H]1CC[C@]2(NC1)O[C@H]1C[C@H]3[C@@H]4CC[C@H]5C[C@@H](O)CC[C@]5(C)[C@H]4CC[C@]3(C)[C@H]1[C@@H]2C [TOMATIDINE]
- MIC (Staphylococcus aureus [9]): 0.06 µg/mL
- MIC (Staphylococcus aureus [10]): 0.06 µg/mL
- MIC (Staphylococcus aureus [11]): > 64 µg/mL
- MIC (Staphylococcus aureus [7]): > 64 µg/mL
- MIC (Escherichia coli [8]): > 128 µg/mL

Compound: COLISTIN
- MIC (Escherichia coli [12]): 1 µg/mL
- MIC (Escherichia coli [13]): 1 µg/mL
- MIC (Escherichia coli [14]): 0.5 µg/mL
- MIC (Escherichia coli [15]): 32 µg/mL

Compound: C[C@H]1CC[C@]2(NC1)O[C@H]1C[C@H]3[C@@H]4CC[C@H]5CC(NC[C@@H](N)Cc6ccc(O)cc6)CC[C@]5(C)[C@H]4CC[C@]3(C)[C@H]1[C@@H]2C (mixture of isomers)
- MIC (Escherichia coli [16]): > 128 µg/mL
- Selectivity ratio (Escherichia coli [17]): > 8
- MIC (Staphylococcus aureus [10]): 0.25 µg/mL
- MIC (Staphylococcus aureus [7]): 8 µg/mL
- IC50 [18]: 1.6 µM
- MIC (Escherichia coli [19]): 8 µg/mL
- MIC (Escherichia coli [20]): 16 µg/mL
- MIC (Escherichia coli [8]): 64 µg/mL

Compound: NC[C@H]1O[C@H](O[C@H]2[C@H](O)[C@@H](O[C@H]3O[C@H](CO)[C@@H](O)[C@H](N)[C@H]3O)[C@H](N)C[C@@H]2N)[C@H](N)C[C@@H]1O [TOBRAMYCIN]
- MIC (Escherichia coli [21]): ≤ 0.03 µg/mL
- MIC (Escherichia coli [12]): 0.24 µg/mL
- MIC (Staphylococcus aureus [1]): > 64 µg/mL
- MIC (Staphylococcus aureus [22]): 16 µg/mL
- MIC (Escherichia coli [23]): 64 µg/mL
- MIC (Staphylococcus aureus [2]): 0.5 µg/mL
- MIC (Escherichia coli [14]): 0.5 µg/mL
- MIC (Escherichia coli [15]): 32 µg/mL
- MIC (Escherichia coli [24]): 64 µg/mL
- MIC (Staphylococcus aureus [4]): > 64 µg/mL

Compound: C[C@@H](O)[C@H]1C(=O)N2C(C(=O)O)=C(S[C@@H]3CN[C@H](C(=O)N(C)C)C3)[C@H](C)[C@H]12 [MEROPENEM]
- MIC (Escherichia coli [12]): ≤ 0.03 µg/mL
- MIC (Staphylococcus aureus [1]): > 16 µg/mL
- MIC (Escherichia coli [23]): > 16 µg/mL
- MIC (Staphylococcus aureus [2]): 0.12 µg/mL
- MIC (Staphylococcus aureus [3]): 0.06 µg/mL
- MIC (Escherichia coli [25]): 8 µg/mL (≈ 20.9 µM)
- MIC (Escherichia coli [26]): ≤ 0.03 µg/mL
- MIC (Staphylococcus aureus [4]): > 16 µg/mL

Compound: C[C@H]1CC[C@]2(NC1)O[C@H]1C[C@H]3[C@@H]4CC[C@H]5CC(NC[C@@H](N)Cc6ccc(Cl)c(Cl)c6)CC[C@]5(C)[C@H]4CC[C@]3(C)[C@H]1[C@@H]2C (mixture of isomers)
- IC50 [27]: 13.9 µM
- MIC (Escherichia coli [16]): 8 µg/mL
- MIC (Escherichia coli [28]): 8 µg/mL
- MIC (Escherichia coli [29]): 4 µg/mL
- MIC (Staphylococcus aureus [30]): 1 µg/mL
- MIC (Staphylococcus aureus [31]): 2 µg/mL
- IC50 [32]: 0.83 µM
- MIC (Staphylococcus aureus [10]): 0.5 µg/mL
- MIC (Staphylococcus aureus [7]): 1 µg/mL
- IC50 [18]: 1.95 µM
- MIC (Escherichia coli [19]): 2 µg/mL
- MIC (Escherichia coli [20]): 4 µg/mL
- MIC (Escherichia coli [33]): 8 µg/mL
- MIC (Escherichia coli [8]): 4 µg/mL
- MIC (Escherichia coli [34]): 8 µg/mL

Compound: CC(C)(O/N=C(\C(=O)N[C@@H]1C(=O)N2C(C(=O)[O-])=C(C[n+]3ccccc3)CS[C@H]12)c1csc(N)n1)C(=O)O [CEFTAZIDIME]
- MIC (Escherichia coli [21]): 1 µg/mL
- MIC (Escherichia coli [12]): 0.25 µg/mL
- MIC (Escherichia coli [23]): > 32 µg/mL
- MIC (Escherichia coli [24]): > 32 µg/mL
- MIC (Escherichia coli [25]): > 32 µg/mL
- MIC (Escherichia coli [26]): 0.25 µg/mL

Compound: CN[C@H](CC(C)C)C(=O)N[C@H]1C(=O)N[C@@H](CC(N)=O)C(=O)N[C@H]2C(=O)N[C@H]3C(=O)N[C@H](C(=O)N[C@H](C(=O)O)c4cc(O)cc(O)c4-c4cc3ccc4O)[C@H](O)c3ccc(c(Cl)c3)Oc3cc2cc(c3O[C@@H]2O[C@H](CO)[C@@H](O)[C@H](O)[C@H]2O[C@H]2C[C@](C)(N)[C@H](O)[C@H](C)O2)Oc2ccc(cc2Cl)[C@H]1O [VANCOMYCIN]
- MIC (Staphylococcus aureus [35]): 8 µg/mL (≈ 5.52 µM)
